Results taken from ChEMBL document CHEMBL5321216, “Discovery of bipyridine amide derivatives targeting pRXRα-PLK1 interaction for anticancer therapy” (Eur J Med Chem, 2023).
Activity calls are given as the source filed them. The rule behind the calls is not given here.

Experiments:
[1] = Cytotoxicity against human MCF-10A cells assessed as inhibition of cell proliferation incubated for 72 hrs by MTT assay; type: toxicity, cell-based
[2] = test system: A549; test: Induction of apoptosis in human A549 cells assessed as live cells at 125 nM incubated for 24 hrs by annexin V-FITC/PI staining based flow cytometry analysis (reference value: 93.2%); type: functional
[3] = test system: A549; test: Induction of cell cycle arrest in wild type human A549 cells assessed as accumulation of cells at G2 phase at 125 nM incubated for 12 hrs by DAPI staining based flow cytometry analysis (reference value: 21.99 %); type: functional
[4] = Drug absorption in KM mouse at 25 mg/kg, po measured after 0.5 to 2 hrs; type: ADME, organism-based; conditions: in vivo, time 0.5-2 hrs
[5] = Selectivity index, ratio of IC50 for human NCI-H460 cells to IC50 for human MDA-MB-231 cells; type: functional
[6] = test system: HepG2; test: Antiproliferative activity against human HepG2 cells assessed as cell viability rate at 5 uM incubated for 72 hrs by MTT assay relative to control; type: functional
[7] = Toxicity in BALB/c mouse xenografted with human MDA-MB-231 cells assessed as kidney damage at 25 mg/kg/day, ip administered for 15 days by H and E staining based analysis; type: organism-based; conditions: in vivo, 360 h, time 15 day
[8] = test system: MDA-MB-231; test: Antitumor activity against human MDA-MB-231 cells xenografted in BALB/c nude mouse assessed as inhibition of tumor growth by measuring mitotic arrest at 12.5 to 25 mg/kg/day, ip administered for 15 days; type: functional, organism-based; conditions: dose 12.5-25 mg/kg/day, time 15.0 day
[9] = test system: A549; test: Induction of cell cycle arrest in human A549 cells assessed as accumulation of cells at S phase at 15.625 nM incubated for 12 hrs by flow cytometry analysis (reference value: 31.81%); type: functional; conditions: 0.01562 µM
[10] = test system: MDA-MB-231; test: Induction of apoptosis in human MDA-MB-231 cells assessed as increase in cleaved PARP expression at 125 nM by Western blot analysis; type: functional, cell-based; conditions: time 1-24 hrs, TDE = time-dependent effect
[11] = test system: MDA-MB-231; test: Induction of apoptosis in human MDA-MB-231 cells assessed as increase in cleaved PARP expression measured after 24 hrs by Western blot analysis; type: functional, cell-based; conditions: dose 7.8-500 nM
[12] = test system: A549; test: Induction of apoptosis in human A549 cells assessed as dead cells at 62.5 nM incubated for 24 hrs by annexin V-FITC/PI staining based flow cytometry analysis (reference value: 0.75%); type: functional
[13] = test system: A549; test: Induction of apoptosis in human A549 cells assessed as late apoptotic cells at 250 nM incubated for 24 hrs by annexin V-FITC/PI staining based flow cytometry analysis (reference value: 5.28%); type: functional
[14] = test system: MDA-MB-231; test: Effect on Nur77 protein expression in human MDA-MB-231 cells at 7.8 to 500 nM measured after 24 hrs by Western blot analysis; type: functional, cell-based; conditions: dose 7.8-500 nM
[15] = test system: MDA-MB-231; test: Induction of apoptosis in human MDA-MB-231 cells assessed as late apoptotic cells at 62.5 nM incubated for 24 hrs by annexin V-FITC/PI staining based flow cytometry analysis (reference value: 5.93%); type: functional
[16] = test system: A549; test: Induction of cell cycle arrest in RXRalpha knockout human A549 cells assessed as accumulation of cells at S phase at 125 nM incubated for 12 hrs by DAPI staining based flow cytometry analysis (reference value: 32.74%); type: functional
[17] = test system: MDA-MB-231; test: Induction of cell cycle arrest in human MDA-MB-231 cells assessed as accumulation of cells at S phase at 62.5 nM incubated for 12 hrs by flow cytometry analysis (reference value: 40.89%); type: functional
[18] = test system: A549; test: Induction of apoptosis in human A549 cells assessed as live cells at 62.5 nM incubated for 24 hrs by annexin V-FITC/PI staining based flow cytometry analysis (reference value: 93.2%); type: functional
[19] = test system: A549; test: Induction of apoptosis in human A549 cells assessed as early apoptotic cells at 31.25 nM incubated for 24 hrs by annexin V-FITC/PI staining based flow cytometry analysis (reference value: 0.78%); type: functional
[20] = test system: MDA-MB-231; test: Induction of cell cycle arrest in human MDA-MB-231 cells assessed as accumulation of cells at G1 phase at 15.625 nM incubated for 12 hrs by flow cytometry analysis (reference value: 43.2%); type: functional; conditions: 0.01562 µM
[21] = test system: MDA-MB-231; test: Induction of apoptosis in human MDA-MB-231 cells assessed as live cells at 62.5 nM incubated for 24 hrs by annexin V-FITC/PI staining based flow cytometry analysis (reference value: 91.3%); type: functional
[22] = biological target: T1, Retinoic acid receptor RXR-gamma (Homo sapiens) (UniProt P48443); test: Antagonist activity at RXRgamma (unknown origin) transfected in human HeLa cells at 31.25 uM incubated for 24 hrs by dual luciferase reporter assay; type: cell-based
T1 sequence (whole entry): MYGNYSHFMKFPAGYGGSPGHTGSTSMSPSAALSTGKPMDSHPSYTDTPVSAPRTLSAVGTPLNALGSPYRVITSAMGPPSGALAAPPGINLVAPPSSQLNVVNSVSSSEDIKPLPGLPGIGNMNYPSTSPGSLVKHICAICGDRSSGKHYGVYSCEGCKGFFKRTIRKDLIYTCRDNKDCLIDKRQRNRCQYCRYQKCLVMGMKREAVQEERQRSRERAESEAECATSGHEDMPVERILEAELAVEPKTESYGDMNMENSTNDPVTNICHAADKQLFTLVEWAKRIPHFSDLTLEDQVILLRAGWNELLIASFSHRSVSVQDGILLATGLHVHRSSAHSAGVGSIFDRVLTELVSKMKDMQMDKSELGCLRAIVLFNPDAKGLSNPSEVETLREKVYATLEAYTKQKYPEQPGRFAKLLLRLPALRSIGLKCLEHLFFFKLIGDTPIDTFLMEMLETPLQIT

[23] = test system: A549; test: Induction of apoptosis in human A549 cells assessed as dead cells at 125 nM incubated for 24 hrs by annexin V-FITC/PI staining based flow cytometry analysis (reference value: 0.75%); type: functional
[24] = test system: A549; test: Induction of cell cycle arrest in human A549 cells assessed as accumulation of cells at G2 phase at 31.25 nM incubated for 12 hrs by flow cytometry analysis (reference value: 8.62%); type: functional
[25] = test system: MDA-MB-231; test: Upregulation of phosphorylated RXRalpha protein level in human MDA-MB-231 cells at 125 to 500 nM incubated for 24 hrs in presence of thermosensitive alkaline phosphatase by Western blot analysis; type: functional, cell-based; conditions: dose 125-500 nM
[26] = test system: MDA-MB-231; test: Induction of apoptosis in human MDA-MB-231 cells assessed as dead cells at 31.25 nM incubated for 24 hrs by annexin V-FITC/PI staining based flow cytometry analysis (reference value: 0.69%); type: functional
[27] = test system: MDA-MB-231; test: Induction of apoptosis in human MDA-MB-231 cells assessed as early apoptotic cells at 31.25 nM incubated for 24 hrs by annexin V-FITC/PI staining based flow cytometry analysis (reference value: 2.03%); type: functional
[28] = test system: A549; test: Induction of apoptosis in human A549 cells assessed as dead cells at 250 nM incubated for 24 hrs by annexin V-FITC/PI staining based flow cytometry analysis (reference value: 0.75%); type: functional
[29] = AUC (0 to infinity) in Sprague-Dawley rat at 25 mg/kg, ip measured for 48 hrs by LC-MS/MS analysis; type: ADME, organism-based; design: time 48 hrs, dose 25 mg/kg, route ip; conditions: in vivo

O=C(/C=C/c1ccccc1)Nc1cc(-c2ccnc(N3CCC(CO)CC3)c2)ccn1
IC50 at 72 h [1]: 18.6 µM
Activity [2]: 52%
Activity [3]: 79.66%
Drug absorption [4]: Not Active
Ratio IC50 [5]: 15.81
Activity [6]: 42.38%
Activity [7]: Non-Toxic
Activity [8]: Active
Activity [9]: 31.99%
Activity [10]: Tde
Activity [11]: Dose-Dependent Effect
Activity [12]: 2.76%
Activity [13]: 21.4%
Activity [14]: inactive
Activity [15]: 15.2%
Activity [16]: 36.18%
Activity [17]: 16.51%
Activity [18]: 67.7%
Activity [19]: 6.28%
Activity [20]: 42.77%
Activity [21]: 69.2%
Activity [22]: inactive
Activity [23]: 2.31%
Activity [24]: 8.76%
Activity [25]: inactive
Activity [26]: 0.93%
Activity [27]: 2.24%
Activity [28]: 2.36%
AUC(0-inf) [29]: 14.6 µg·h/mL
